Reference: patent US11919901B2 (Syndax Pharmaceuticals, Inc., priority 2021, dated 2024)

system: MV4-11 cells; test: Cell proliferation assay MV4;11 (CellTiter-Glo, 72 hours); format: cell-based; details: Homo sapiens; MV4;11 leukemia cell line, 72 hours; read-out: MV4; 11 IC50
How it was run: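 MV4-11 cells (MLL1-AF4 fusion) exposed 72 h at 37 °C to 8 compound concentrations, final 0.632–2000 nM. Viability by CellTiter-Glo luminescence as % of vehicle RLU; % max inhibition = 100 − viability at top concentration.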

SMILES	IC50 [nM]
C[C@@H]1COC[C@@H](C)N1C(=O)c1cc(F)ccc1Oc1cncnc1N1CC2(CCN(C[C@@H]3CC[C@@H](NS(=O)(=O)NCC4CC4)CO3)CC2)C1 [Example 158, (Cyclopropylmethyl)({[(3R,6S)-6-{[2-(5-{2-[(3R,5R)-3,5-dimethylmorpholine-4-carbonyl]-4-fluorophenoxy}pyrimidin-4-yl)-2,7-diazaspiro[3.5]nonan-7-yl]methyl}oxan-3-yl]sulfamoyl})amine]	< 100
C[C@@H]1COC[C@@H](C)N1C(=O)c1cc(F)ccc1Oc1cncnc1N1CC2(CCN(C[C@@H]3CC[C@@H](NS(=O)(=O)NC4CC4)CO3)CC2)C1 [Example 159, N-[(3R,6S)-6-{[2-(5-{2-[(3R,5R)-3,5-Dimethylmorpholine-4-carbonyl]-4-fluorophenoxy}pyrimidin-4-yl)-2,7-diazaspiro[3.5]nonan-7-yl]methyl}oxan-3-yl](cyclopropylamino)sulfonamide]	< 100
C[C@@H]1COC[C@H](C)N1C(=O)c1cc(F)ccc1Oc1cncnc1N1CC2(CCN(C[C@@H]3CC[C@@H](NS(=O)(=O)N(C)C)CO3)CC2)C1 [Example 160, {[(3R,6S)-6-{[2-(5-{2-[(3R,5S)-3,5-Dimethylmorpholine-4-carbonyl]-4-fluorophenoxy}pyrimidin-4-yl)-2,7-diazaspiro[3.5]nonan-7-yl]methyl}oxan-3-yl]sulfamoyl}dimethylamine]	< 100
C[C@@H]1COC[C@H](C)N1C(=O)c1cc(F)ccc1Oc1cncnc1N1CC2(CCN(C[C@@H]3CC[C@@H](NS(=O)(=O)N4CCC4)CO3)CC2)C1 [Example 161, N-((3R,6S)-6-((2-(5-(2-((3R,5S)-3,5-Dimethylmorpholine-4-carbonyl)-4-fluorophenoxy)pyrimidin-4-yl)-2,7-diazaspiro[3.5]nonan-7-yl)methyl)tetrahydro-2H-pyran-3-yl)azetidine-1-sulfonamide]	< 100
C[C@@H]1COC[C@H](C)N1C(=O)c1cc(F)ccc1Oc1cncnc1N1CC2(CCN(C[C@@H]3CC[C@@H](NS(=O)(=O)NCC(F)(F)F)CO3)CC2)C1 [Example 162, {[(3R,6S)-6-{[2-(5-{2-[(3R,5S)-3,5-Dimethylmorpholine-4-carbonyl]-4-fluorophenoxy}pyrimidin-4-yl)-2,7-diazaspiro[3.5]nonan-7-yl]methyl}oxan-3-yl]sulfamoyl}(2,2,2-trifluoroethyl)amine]	< 100
C[C@@H]1COC[C@H](C)N1C(=O)c1cc(F)ccc1Oc1cncnc1N1CC2(CCN(C[C@@H]3CC[C@@H](NS(=O)(=O)NC4CC4)CO3)CC2)C1 [Example 163, N-[(3R,6S)-6-{[2-(5-{2-[(3R,5S)-3,5-Dimethylmorpholine-4-carbonyl]-4-fluorophenoxy}pyrimidin-4-yl)-2,7-diazaspiro[3.5]nonan-7-yl]methyl}oxan-3-yl](cyclopropylamino)sulfonamide]	< 100
CC(C)N(C(=O)c1cc(F)ccc1Oc1cncnc1N1CC2(CCN(C[C@@H]3CC[C@@H](NS(=O)(=O)C4CC4)CO3)CC2)C1)[C@@H]1CCOC1 [Example 164, 2-((4-(7-(((2S,5R)-5-(Cyclopropanesulfonamido)tetrahydro-2H-pyran-2-yl)methyl)-2,7-diazaspiro[3.5]nonan-2-yl)pyrimidin-5-yl)oxy)-5-fluoro-N-isopropyl-N-((R)-tetrahydrofuran-3-yl)benzamide]	< 100
CCN(CC)S(=O)(=O)N[C@@H]1CC[C@@H](CN2CCC3(CC2)CN(c2ncncc2Oc2ccc(F)cc2C(=O)N(C(C)C)[C@@H]2CCOC2)C3)OC1 [Example 165, 2-((4-(7-(((2S,5R)-5-((N,N-Diethylsulfamoyl)amino)tetrahydro-2H-pyran-2-yl)methyl)-2,7-diazaspiro[3.5]nonan-2-yl)pyrimidin-5-yl)oxy)-5-fluoro-N-isopropyl-N-((R)-tetrahydrofuran-3-yl)benzamide]	< 100
CC(C)N(C(=O)c1cc(F)ccc1Oc1cncnc1N1CC2(CCN(C[C@@H]3CC[C@@H](NS(C)(=O)=O)CO3)CC2)C1)[C@@H]1CCOC1 [Example 166, 5-Fluoro-N-isopropyl-2-((4-(7-(((2S,5R)-5-(methylsulfonamido)tetrahydro-2H-pyran-2-yl)methyl)-2,7-diazaspiro[3.5]nonan-2-yl)pyrimidin-5-yl)oxy)-N-((R)-tetrahydrofuran-3-yl)benzamide]	< 100
CC(C)N(C(=O)c1cc(F)ccc1Oc1cncnc1N1CC2(CCN(C[C@@H]3CC[C@@H](NS(=O)(=O)N(C)C)CO3)CC2)C1)[C@@H]1CCOC1 [Example 167, 2-((4-(7-(((2S,5R)-5-((N,N-Dimethylsulfamoyl)amino)tetrahydro-2H-pyran-2-yl)methyl)-2,7-diazaspiro[3.5]nonan-2-yl)pyrimidin-5-yl)oxy)-5-fluoro-N-isopropyl-N-((R)-tetrahydrofuran-3-yl)benzamide]	< 100
CC(C)N(C(=O)c1cc(F)ccc1Oc1cncnc1N1CC2(CCN(C[C@@H]3CC[C@@H](NS(=O)(=O)N4CCC4)CO3)CC2)C1)[C@@H]1CCOC1 [Example 168, 2-((4-(7-(((2S,5R)-5-(Azetidine-1-sulfonamido)tetrahydro-2H-pyran-2-yl)methyl)-2,7-diazaspiro[3.5]nonan-2-yl)pyrimidin-5-yl)oxy)-5-fluoro-N-isopropyl-N-((R)-tetrahydrofuran-3-yl)benzamide]	< 100
CC(C)N(C(=O)c1cc(F)ccc1Oc1cncnc1N1CC2(CCN(C[C@@H]3CC[C@@H](NS(=O)(=O)N4CCCC4)CO3)CC2)C1)[C@@H]1CCOC1 [Example 169, 5-Fluoro-N-isopropyl-2-((4-(7-(((2S,5R)-5-(pyrrolidine-1-sulfonamido)tetrahydro-2H-pyran-2-yl)methyl)-2,7-diazaspiro[3.5]nonan-2-yl)pyrimidin-5-yl)oxy)-N-((R)-tetrahydrofuran-3-yl)benzamide]	< 100
CCN(C)S(=O)(=O)N[C@@H]1CC[C@@H](CN2CCC3(CC2)CN(c2ncncc2Oc2ccc(F)cc2C(=O)N(C(C)C)[C@@H]2CCOC2)C3)OC1 [Example 170, 2-((4-(7-(((2S,5R)-5-((N-Ethyl-N-methylsulfamoyl)amino)tetrahydro-2H-pyran-2-yl)methyl)-2,7-diazaspiro[3.5]nonan-2-yl)pyrimidin-5-yl)oxy)-5-fluoro-N-isopropyl-N-((R)-tetrahydrofuran-3-yl)benzamide]	< 100
CC(C)N(C(=O)c1cc(F)ccc1Oc1cncnc1N1CC2(CCN(C[C@@H]3CC[C@@H](NS(=O)(=O)NCC(F)(F)F)CO3)CC2)C1)[C@@H]1CCOC1 [Example 171, 5-Fluoro-N-isopropyl-N-((R)-tetrahydrofuran-3-yl)-2-((4-(7-(((2S,5R)-5-((N-(2,2,2-trifluoroethyl)sulfamoyl)amino)tetrahydro-2H-pyran-2-yl)methyl)-2,7-diazaspiro[3.5]nonan-2-yl)pyrimidin-5-yl)oxy)benzamide]	< 100
CCNS(=O)(=O)N[C@@H]1CC[C@@H](CN2CCC3(CC2)CN(c2ncncc2Oc2ccc(F)cc2C(=O)N(C(C)C)[C@@H]2CCOC2)C3)OC1 [Example 172, 2-((4-(7-(((2S,5R)-5-((N-ethylsulfamoyl)amino)tetrahydro-2H-pyran-2-yl)methyl)-2,7-diazaspiro[3.5]nonan-2-yl)pyrimidin-5-yl)oxy)-5-fluoro-N-isopropyl-N-((R)-tetrahydrofuran-3-yl)benzamide]	< 100
